In patent US5276043A, “Method for treatment of neurodegenerative diseases” (priority 1993, dated 1994):
Like-named read-outs stand apart in the source and are kept apart here.

How the values were obtained:
[1] = tested on: synaptosomes from the striatal area of rat brain; experiment: [3H]-dopamine release from rat striatal synaptosomes; format: cell-based, Sprague-Dawley rats; conditions: read-out: Dopamine Release (percent release relative to (S)-(-)-nicotine)
Method: Dopamine release was measured by preparing synaptosomes from the striatal area of rat brain obtained from Sprague-Dawley rats generally according to the procedures set forth by Nagy, et al., J. Neurochem., Vol. 43, pp. 1114-1123 (1984). Striata from 4 rats were homogenized in 2 ml of 0.32M sucrose buffered with 5 mM HEPES (pH 7.5), using a glass-teflon tissue grinder. The homogenate was diluted to 5 ml with additional homogenization solution and centrifuged at 1000×g for 10 min. This procedure was repeated on the new pellet and the resulting supernatant was centrifuged at 12,000×g for 20 min. A 3 layer discontinuous Percoll gradient consisting of 16 percent, 10 percent and 7.5 percent Percoll in HEPES-buffered sucrose was made with the final pellet dispersed in the top layer. After centrifugation at 15,000×g for 20 min., the synaptosomes were recovered above the 16 percent layer with a pasteur pipette, diluted with 8 ml of perfusion buffer (128 mM NaCl, 2.4 mM KCl, 3.2 mM CaCl2, 1.2 mM KH2 PO4, 1.2 mM MgSO4, 25 mM HEPES pH 7.4, 10 mM dextrose, 1 mM ascorbate, 0.01 mM pargyline), and centrifuged at 15,000×g for 20 min. The new pellet was collected and re-suspended in perfusion buffer. The synaptosome suspension was incubated for 10 min. at 37° C. Then [^3 H]-dopamine (Amersham, 40-60 Ci/mmol) was added to the suspension to give a final concentration of 0.1 μM in suspension, and the suspension was incubated for another 5 min. Using this method, 30 to 90 percent of the dopamine was taken up into the synaptosomes, as determined by scintillation counting following filtration through glass fiber filters soaked with 0.5 percent polyethyleneimine. A continuous perfusion system was used to monitor release following exposure to each ligand. The ligands are named in Table I. Synaptosomes were loaded onto glass fiber filters (Gelman type A/E). Perfusion buffer was dripped onto the filters (0.2-0.3 ml/min.) and pulled through the filters with a peristaltic pump. Synaptosomes were washed with perfusion buffer for a minimum of 20 min. before addition of the ligand. After the addition of a 0.2 ml of a 20 μM solution of ligand, the perfusate was collected into scintillation vials at 1 min. intervals and the dopamine released was quantified by scintillation counting. Peaks of radioactivity released above background were summed and the average basal release during that time was subtracted from the total. Release was expressed as a percentage of release obtained with an equal concentration of (S)-(-)-nicotine.

[2] = target: high affinity nicotinic receptors; experiment: Inhibition of L-[3H]nicotine binding to mouse brain membrane preparations; parameters: species or system Mice (DBA strain); conditions: mouse brain membranes, 10 nM L-[3H]nicotine, 2 hr at 4° C.; Ki calculated from IC50 by Cheng method; read-out: Ki (concentration of compound which inhibits 50 percent of L-[3H]nicotine binding)
Method: Mice (DBA strain) were maintained on a 12 hour light/dark cycle and were allowed free access to water and food supplied by Wayne Lab Blox, Madison, Wis. Animals used in the present studies were 60 to 90 days of age and weighed 20 to 25 g. Brain membrane preparations were obtained from pooled brain tissue of both males and females.
Mice were killed by cervical dislocation. Brains were removed and placed on an ice-cold platform. The cerebellum was removed and the remaining tissue was placed in 10 volumes (weight:volume) of ice-cold buffer (Krebs-RingersHEPES:NaCl, 118 mM; KCl, 4.8 mM; CaCl2, 2.5 mM; MgSO4, 1.2 mM; HEPES, 20 mM; pH to 7.5 with NaOH) and homogenized with a glass-Teflon tissue grinder. The resulting homogenate was centrifuged at 18000×g for 20 min. and the resulting pellet was resuspended in 20 volumes of water. After 60 min. incubation at 4° C., a new pellet was collected by centrifugation at 18000×g for 20 min. After resuspension in 10 volumes of buffer, a new final pellet was again collected by centrifugation at 18000×g for 20 min. Prior to each centrifugation step, the suspension was incubated at 37° C. for 5 min. to promote hydrolysis of endogenous acetylcholine. […] Protein was determined by the method of Lowry, et al., J. Biol. Chem., Vol. 193, pp. 265-275 (1951), using bovine serum albumin as the standard.
The binding of L-[^3 H]nicotine was measured using a modification of the method of Romano, et al., Science, Vol. 210, pp. 647-650 (1980) as described previously by Marks, et al., Mol. Pharmacol., Vol. 30, pp. 427-436 (1986). The binding of L-[^3 H]nicotine was measured using a 2 hr. incubation at 4° C. […] Nonspecific binding was determined by inclusion of 10 μM nonradioactive nicotine in the incubations. The inhibition of L-[^3 H]nicotine binding by test compounds was determined by including one of eight different concentrations of the test compound in the incubation. […] Inhibition constants (Ki values) were calculated from the IC50 values using the method of Cheng, et al., Biochem. Pharmacol., Vol. 22, pp. 3099-3108 (1973). […]

[3] = 0.2 ml of 20 μM ligand solution, relative to equal concentration of (S)-(-)-nicotine

Structure (SMILES): Fc1cncc(C2=NCCCC2)c1 [5-fluoroanabaseine]
- Emax at 20 µM [1, 3]: 50%

Structure (SMILES): CN1CCCCC1c1cccnc1 (stereo not shown) [methyl anabasine]
- Ki [2]: 450 nM
- Emax at 20 µM [1]: 5%

Structure (SMILES): C1=CCC(c2cccnc2)NC1 (racemic) [anatabine]
- Ki [2]: 240 nM
- Emax at 20 µM [1, 3]: 70%

Structure (SMILES): c1cncc(C2=NCCC2)c1 [myosmine]
- Ki [2]: 3700 nM
- Emax at 20 µM [1, 3]: 10%
